Results from patent US7019034B2, “Compositions and methods for reducing serum glucose and triglyceride levels in diabetic mammals” (Allergan, Inc., priority 2003, dated 2006).

Experiments:
RXRβ = biological target: T1, RXRβ (UniProt P28704); test: holoreceptor transactivation assay, RXRβ; type: cell-based; conditions: for RXR β efficacy in percentage as compared to the standard compound / EC50: holoreceptor assay; for RXR β efficacy in percentage as compared to the standard compound: number in brackets; for EC50: read-out: RXR Trans. EC50 β; for efficacy in activating RXRβ compared with RXRα and RXRγ subtypes (in words): transactivation, Table 1
T1 sequence (P28704 1-520): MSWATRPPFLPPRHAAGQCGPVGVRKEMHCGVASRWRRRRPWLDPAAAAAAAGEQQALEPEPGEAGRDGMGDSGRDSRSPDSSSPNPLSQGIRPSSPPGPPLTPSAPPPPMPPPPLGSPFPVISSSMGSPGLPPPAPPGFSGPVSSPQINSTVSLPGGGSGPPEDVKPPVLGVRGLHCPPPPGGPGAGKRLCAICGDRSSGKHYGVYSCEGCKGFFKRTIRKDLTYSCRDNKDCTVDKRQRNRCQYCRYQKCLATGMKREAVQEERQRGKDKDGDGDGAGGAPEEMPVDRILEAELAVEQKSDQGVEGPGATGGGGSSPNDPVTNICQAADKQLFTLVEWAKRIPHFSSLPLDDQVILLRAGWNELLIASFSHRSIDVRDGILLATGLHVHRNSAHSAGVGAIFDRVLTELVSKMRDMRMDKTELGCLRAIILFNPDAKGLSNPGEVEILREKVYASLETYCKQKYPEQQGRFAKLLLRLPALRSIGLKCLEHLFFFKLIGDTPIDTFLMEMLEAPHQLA
Text: The results obtained in this assay are expressed in EC50 numbers, as they are also in the chimeric receptor transactivation assay. The results of the ligand binding assay are expressed in Ki numbers.
Particularly, the transactivation data pertaining to activation of the RAR receptors were obtained in the chimeric assay, and the transactivation data pertaining to the activation of RXR receptors were obtained in the holoreceptor assay.
(§1) In Table 1 NA stands for not active at all as an agonist. ND stands for not determined. The first row of numbers pertaining to each compound is the measured EC50 number. […] The third row of numbers pertaining to each compound is the binding Ki number.

RARγ = biological target: T2, RARγ (Homo sapiens, UniProt P13631); test: ligand binding assay, RARγ; conditions: read-out: RAR Bind. Ki γ
T2 sequence (P13631 1-454): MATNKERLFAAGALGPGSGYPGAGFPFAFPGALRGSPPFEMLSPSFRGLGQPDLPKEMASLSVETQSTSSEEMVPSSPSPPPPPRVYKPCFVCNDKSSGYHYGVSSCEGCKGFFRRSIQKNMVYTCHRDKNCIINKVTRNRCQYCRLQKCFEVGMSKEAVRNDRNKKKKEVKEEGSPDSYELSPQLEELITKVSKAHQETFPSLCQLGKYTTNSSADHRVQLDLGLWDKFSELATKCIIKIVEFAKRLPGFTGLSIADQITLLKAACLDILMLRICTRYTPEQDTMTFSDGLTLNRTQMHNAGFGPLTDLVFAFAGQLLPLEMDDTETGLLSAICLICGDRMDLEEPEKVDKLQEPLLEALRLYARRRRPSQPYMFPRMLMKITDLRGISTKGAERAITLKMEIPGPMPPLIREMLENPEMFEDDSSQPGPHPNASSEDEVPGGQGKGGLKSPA
Text: A holoreceptor transactivation assay and a ligand binding assay which measure the antagonist/agonist like activity of the compounds of the invention, or their ability to bind to the several retinoid receptor subtypes, respectively, are described in published PCT Application No. WO WO93/11755 (particularly on pages 30–33 and 37–41) published on Jun. 24, 1993, the specification of which is also incorporated herein by reference. […] The results obtained in this assay are expressed in EC50 numbers, as they are also in the chimeric receptor transactivation assay. The results of the ligand binding assay are expressed in Ki numbers. (See Cheng et al. Biochemical Pharmacology Vol. 22 pp 3099–3108, expressly incorporated herein by reference.)
as §1

diabetic db/db mice [1] = test: serum glucose in diabetic db/db mice, 7 days oral dosing; type: in vivo; conditions: for Glucose: 50 mg/kg once daily oral gavage, mean +/- SD
Procedure: (§2) Effects of RXR agonists on serum glucose and triglyceride were studied in diabetic db/db mice. […] Briefly, animals were dosed once daily by oral gavage using corn oil vehicle for a period of 7 consecutive days. Serum samples were collected on day 1 (first day of dosing) and day 7 at hour 0 (immediately prior to dosing) and hour 3 (approximately 3 hours after dosing). Serum glucose and triglyceride levels of these samples were measured as described in the reference manuals: Glucose/HK. Boehringer Mannheim Corporation, 9115 Hague Road, Indianapolis, Ind., USA and Triglycerides/GPO. Roche Diagnostics Corporation, 9115 Hague Road, Indianapolis, Ind., USA, expressly incorporated herein. Only those animals with glucose levels of higher than 300 mg/dl at 0 hour on day 1 were considered as diabetic and included in data analysis.
(§3) A measured amount of dosing solution was withdrawn into a metal feeding tube attached to a marked syringe. Animals were restrained by grasping of their back skin while the feeding tube was gently inserted into their mouth and into esophagus. A fixed amount of the dosing solution was displaced into the esophagus/stomach of the animal by pushing the plunger of the syringe. Serum samples were collected from the retro-orbital sinus while the animals were anesthetized. These samples were analyzed by using commercially available kits from Boehringer Manheim for their glucose levels and Roche Diagnostics for their triglyceride levels in a Boehringer Manheim Hatachi Clinical Chemistry Analyzer.
(§4) For glucose assay, an enzymatic reaction using hexokinase and glucose-6-phosphodehydrogenase to catalyze glucose to gluconate-6phosphate and NADPH was employed. The amount of NADPH formed during these reactions was equivalent to the amount of glucose in the serum and was measured with a spectrophotometer. For triglycerides, a series of enzymatic reactions which included lipase, glycerol kinase and glycerol phosphate oxidase to formed dihydroacetone phosphate and peroxidase. The peroxidase produced catalyzed a reaction between peroxide and 4-aminophenazone and 4-chlorophenol in a Trinder reaction to generate a color change. This color change was measured by a spectrophotometer and reflected the amount of triglyceride in the sample.

diabetic db/db mice [2] = test: serum triglycerides in diabetic db/db mice, 7 days oral dosing; type: in vivo; conditions: for Triglycerides: 50 mg/kg once daily oral gavage, mean +/- SD
Procedure: as §2, §3, §4

[3] = Day 1, 0 hr (immediately prior to dosing)

Row | RXR β efficacy in percentage as compared to the standard compound (RXRβ) [%] | EC50 (RXRβ) [nM] | Ki (RARγ) [nM] | effect on serum triglyceride (in words) (diabetic db/db mice [2]; mouse, in vivo) | Structure (SMILES) | efficacy in activating RXRβ compared with RXRα and RXRγ subtypes (in words) (RXRβ) | Glucose (diabetic db/db mice [1]; [3]) [mg/dL] | Glucose (diabetic db/db mice [1]; Day 1, 3 hr) [mg/dL] | Glucose (diabetic db/db mice [1]; Day 7, 0 hr) [mg/dL] | Glucose (diabetic db/db mice [1]; Day 7, 3 hr) [mg/dL] | effect on serum glucose in diabetic mouse (in words) (diabetic db/db mice [1]; mouse, in vivo) | Triglycerides (diabetic db/db mice [2]; [3]) [mg/dL] | Triglycerides (diabetic db/db mice [2]; Day 1, 3 hr) [mg/dL] | Triglycerides (diabetic db/db mice [2]; Day 7, 0 hr) [mg/dL] | Triglycerides (diabetic db/db mice [2]; Day 7, 3 hr) [mg/dL]
1 | 46 | 36 | 1510 | does not affect | CCOc1cc2c(cc1\C(CC)=C(F)/C=C/C(C)=C/C(=O)O)C(C)(C)CCC2(C)C [Compound 2, (2E,4E,6E)-7-(3-Ethoxy-5,5,8,8-tetramethyl-5,6,7,8-tetrahydronaphthalen-2-yl)-6-fluoro-3-methylnona-2,4,6-trienoic acid] | significantly more effective in activating the RXRβ subtype | 529 ± 123 | 436 ± 127 | 414 ± 105 | 350 ± 140 | capable of lowering serum glucose | 168 ± 74 | 142 ± 94 | 157 ± 106 | 95 ± 33
2 | 24 | 62 | 720 |  | CCCOc1cc2c(cc1\C(C)=C(F)/C=C/C(C)=C/C(=O)O)C(C)(C)CCC2(C)C [Compound 4] | significantly more effective in activating the RXRβ subtype |  |  |  |  |  |  |  |  | 
